Measurements from PubChem BioAssay (NCI).
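Step 1: Grow cells in 96-well plates. Step 2: Expose to compound for 48 hours at 5 concentrations. Step 3: Interpolate endpoints linearly; if unreached, use highest concentration. TGI marks complete inhibition of growth.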

Columns and labels:
Test in all cases: NCI anticancer screen, dose series, 48 h
SK-MEL-2 melanoma = tested on: SK-MEL-2 melanoma
HOP-62 NSCLC = tested on: HOP-62 NSCLC
NCI-H522 lung = tested on: NCI-H522 lung
MOLT-4 leukemia = tested on: MOLT-4 leukemia
LOX IMVI melanoma = tested on: LOX IMVI melanoma
HT29 colon = tested on: HT29 colon
SK-MEL-5 melanoma = tested on: SK-MEL-5 melanoma
HOP-92 NSCLC = tested on: HOP-92 NSCLC
MDA-MB-435 = tested on: MDA-MB-435
NCI-H23 lung = tested on: NCI-H23 lung
EKVX NSCLC = tested on: EKVX NSCLC
UACC-257 melanoma = tested on: UACC-257 melanoma
T-47D breast = tested on: T-47D breast
SR leukemia = tested on: SR leukemia
OVCAR-8 ovarian = tested on: OVCAR-8 ovarian
HCT-15 colon = tested on: HCT-15 colon
UO-31 renal = tested on: UO-31 renal
DU-145 prostate = tested on: DU-145 prostate
OVCAR-5 ovarian = tested on: OVCAR-5 ovarian
K-562 leukemia = tested on: K-562 leukemia
HL-60(TB) leukemia = tested on: HL-60(TB) leukemia
SNB-75 CNS = tested on: SNB-75 CNS
SF-268 CNS = tested on: SF-268 CNS
RPMI-8226 leukemia = tested on: RPMI-8226 leukemia
MCF7 breast = tested on: MCF7 breast
TK-10 renal = tested on: TK-10 renal
ACHN renal = tested on: ACHN renal
SF-295 CNS = tested on: SF-295 CNS
HS 578T breast = tested on: HS 578T breast
SK-OV-3 ovarian = tested on: SK-OV-3 ovarian
NCI-H226 lung = tested on: NCI-H226 lung
RXF 393 renal = tested on: RXF 393 renal
NCI/ADR-RES ovarian = tested on: NCI/ADR-RES ovarian
OVCAR-4 ovarian = tested on: OVCAR-4 ovarian
U251 CNS = tested on: U251 CNS
HCC-2998 colon = tested on: HCC-2998 colon
SW-620 colon = tested on: SW-620 colon
786-0 renal = tested on: 786-0 renal
SK-MEL-28 melanoma = tested on: SK-MEL-28 melanoma
CCRF-CEM leukemia = tested on: CCRF-CEM leukemia
MDA-MB-231 breast = tested on: MDA-MB-231 breast
PC-3 prostate = tested on: PC-3 prostate
CAKI-1 renal = tested on: CAKI-1 renal
MDA-N = tested on: MDA-N
IGROV1 ovarian = tested on: IGROV1 ovarian
NCI-H460 lung = tested on: NCI-H460 lung
KM12 colon = tested on: KM12 colon
SF-539 CNS = tested on: SF-539 CNS
HCT-116 colon = tested on: HCT-116 colon
M14 melanoma = tested on: M14 melanoma
A498 renal = tested on: A498 renal
OVCAR-3 ovarian = tested on: OVCAR-3 ovarian
COLO 205 colon = tested on: COLO 205 colon
UACC-62 melanoma = tested on: UACC-62 melanoma
SN12C renal = tested on: SN12C renal
A549 NSCLC = tested on: A549 NSCLC

With CC1=NN(c2cccc(Cl)c2)C(=N/c2nc3ccccc3s2)/C1=C\c1cccs1 the TGI (SK-MEL-2 melanoma) was 65.4 µM, the TGI (HOP-62 NSCLC) was over 100 µM and the TGI (NCI-H522 lung) was 93.8 µM. The TGI (MOLT-4 leukemia) was 95.2 µM, the TGI (LOX IMVI melanoma) was over 100 µM and the TGI (HT29 colon) was over 100 µM. For the same molecule, the TGI (SK-MEL-5 melanoma) was over 100 µM, the TGI (HOP-92 NSCLC) was over 100 µM and the TGI (MDA-MB-435) was over 100 µM. The TGI (NCI-H23 lung) was 61.8 µM, the TGI (EKVX NSCLC) was over 100 µM and the TGI (UACC-257 melanoma) was over 100 µM. It also gave a TGI (T-47D breast) of over 100 µM, a TGI (SR leukemia) of 64.8 µM and a TGI (OVCAR-8 ovarian) of over 100 µM. The TGI (HCT-15 colon) was over 100 µM, the TGI (UO-31 renal) was over 100 µM and the TGI (DU-145 prostate) was over 100 µM. It also gave a TGI (OVCAR-5 ovarian) of over 100 µM, a TGI (K-562 leukemia) of 93.4 µM and a TGI (HL-60(TB) leukemia) of 30.6 µM. The TGI (SNB-75 CNS) was over 100 µM, the TGI (SF-268 CNS) was over 100 µM and the TGI (RPMI-8226 leukemia) was 32.5 µM. For the same molecule, the TGI (MCF7 breast) was over 100 µM, the TGI (TK-10 renal) was over 100 µM and the TGI (ACHN renal) was over 100 µM. The TGI (SF-295 CNS) was over 100 µM, the TGI (HS 578T breast) was 73 µM and the TGI (SK-OV-3 ovarian) was over 100 µM. For the same molecule, the TGI (NCI-H226 lung) was over 100 µM, the TGI (RXF 393 renal) was over 100 µM and the TGI (NCI/ADR-RES ovarian) was 56.5 µM. It also gave a TGI (OVCAR-4 ovarian) of over 100 µM, a TGI (U251 CNS) of 60.2 µM and a TGI (HCC-2998 colon) of over 100 µM. The TGI (SW-620 colon) was over 100 µM, the TGI (786-0 renal) was over 100 µM and the TGI (SK-MEL-28 melanoma) was over 100 µM. The TGI (CCRF-CEM leukemia) was 47.1 µM, the TGI (MDA-MB-231 breast) was over 100 µM and the TGI (PC-3 prostate) was over 100 µM. For the same molecule, the TGI (CAKI-1 renal) was over 100 µM, the TGI (MDA-N) was over 100 µM and the TGI (IGROV1 ovarian) was over 100 µM. For the same molecule, the TGI (NCI-H460 lung) was over 100 µM, the TGI (KM12 colon) was over 100 µM and the TGI (SF-539 CNS) was over 100 µM. The TGI (HCT-116 colon) was over 100 µM, the TGI (M14 melanoma) was over 100 µM and the TGI (A498 renal) was 82.5 µM. The TGI (OVCAR-3 ovarian) was 45.5 µM.
C=C1CC2CC(=O)C(O)C(C1)C2 (stereo unspecified) gave a TGI (HOP-62 NSCLC) of over 100 µM, a TGI (NCI-H522 lung) of over 100 µM and a TGI (MOLT-4 leukemia) of over 100 µM. It also gave a TGI (LOX IMVI melanoma) of over 100 µM, a TGI (HT29 colon) of over 100 µM and a TGI (SK-MEL-5 melanoma) of over 100 µM. It also gave a TGI (HOP-92 NSCLC) of over 100 µM, a TGI (MDA-MB-435) of over 100 µM and a TGI (NCI-H23 lung) of over 100 µM. For the same molecule, the TGI (EKVX NSCLC) was over 100 µM, the TGI (UACC-257 melanoma) was over 100 µM and the TGI (T-47D breast) was over 100 µM. It also gave a TGI (SR leukemia) of over 100 µM, a TGI (OVCAR-8 ovarian) of over 100 µM and a TGI (HCT-15 colon) of over 100 µM. It also gave a TGI (UO-31 renal) of over 100 µM, a TGI (DU-145 prostate) of over 100 µM and a TGI (OVCAR-5 ovarian) of over 100 µM. It also gave a TGI (K-562 leukemia) of over 100 µM, a TGI (HL-60(TB) leukemia) of over 100 µM and a TGI (SNB-75 CNS) of over 100 µM. For the same molecule, the TGI (SF-268 CNS) was over 100 µM, the TGI (RPMI-8226 leukemia) was over 100 µM and the TGI (COLO 205 colon) was over 100 µM. The TGI (MCF7 breast) was over 100 µM, the TGI (TK-10 renal) was over 100 µM and the TGI (ACHN renal) was over 100 µM. For the same molecule, the TGI (SF-295 CNS) was over 100 µM, the TGI (HS 578T breast) was over 100 µM and the TGI (SK-OV-3 ovarian) was over 100 µM. It also gave a TGI (NCI-H226 lung) of over 100 µM, a TGI (RXF 393 renal) of over 100 µM and a TGI (NCI/ADR-RES ovarian) of over 100 µM. The TGI (HCC-2998 colon) was over 100 µM, the TGI (SW-620 colon) was over 100 µM and the TGI (786-0 renal) was over 100 µM. It also gave a TGI (CCRF-CEM leukemia) of over 100 µM, a TGI (UACC-62 melanoma) of over 100 µM and a TGI (SN12C renal) of over 100 µM. It also gave a TGI (CAKI-1 renal) of over 100 µM, a TGI (MDA-N) of over 100 µM and a TGI (NCI-H460 lung) of over 100 µM. It also gave a TGI (KM12 colon) of over 100 µM, a TGI (SF-539 CNS) of over 100 µM and a TGI (A549 NSCLC) of over 100 µM. The TGI (HCT-116 colon) was over 100 µM, the TGI (M14 melanoma) was over 100 µM and the TGI (A498 renal) was over 100 µM. For the same molecule, the TGI (OVCAR-3 ovarian) was over 100 µM.
